In US20110039721A1, “METHOD FOR PREDICTION ABOUT CARCINOGENICITY OF SUBSTANCE IN RODENT” (Chemicals Evaluation and Research Institute, priority 2007, published 2011):

What was measured:
[1] = system: mRNA expressed from the genes (A) to (D) in rat liver; assay: Behavior of genes (mRNA expression level, oligo-DNA microarray) in rat liver after 28-day oral administration; type: in vivo; conditions: rat liver, oral once daily 28 days
Method in brief: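 Male F344 SPF rats, 5 weeks old, four per group, dosed by oral gavage once daily for 28 days with test chemical or matched-volume solvent. Liver total RNA profiled on oligo-DNA microarray. Change ≥1.5-fold or ≤1/1.5 versus vehicle counted as significant if its direction matched that seen with other carcinogens.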

[2] = system: liver; conditions: in vivo; cited from earlier work
[3] = system: rodent; conditions: in vivo; cited from earlier work
[4] = (C), Unigene Rn.120914, defined direction +

In the case of Cc1ccc(N)cc1N [TS004, 2,4-Diaminotoluene], the “Behavior of gene caused by administration of chemical substance, Gene No. 4846” value ([1]; (A), Unigene Rn.144554, defined direction +) is reported as “+”, the “Behavior of gene caused by administration of chemical substance, Gene No. 4218” value ([1]; (A), Unigene Rn.167075, defined direction +, significant = 1.5 times or more or 1/1.5 or less of control) is reported as “+” and the “Behavior of gene caused by administration of chemical substance, Gene No. 2026” value ([1]; (A), Unigene Rn.167075, defined direction −) is reported as “+”. For the same compound, the “Behavior of gene caused by administration of chemical substance, Gene No. 6182” value ([1]; (A), Unigene Rn.5834, defined direction +) was “+”, the “Behavior of gene caused by administration of chemical substance, Gene No. 5600” value ([1]; (A), Unigene Rn.9836, defined direction +) was “+” and the “Behavior of gene caused by administration of chemical substance, Gene No. 1494” value ([1]; (B), Unigene Rn.1430, defined direction −) was “+”. For the same compound, the “Behavior of gene caused by administration of chemical substance, Gene No. 2045” value ([1]; (B), Unigene Rn.19329, defined direction +) was “−”, the “Behavior of gene caused by administration of chemical substance, Gene No. 2203” value ([1]; (B), Unigene Rn.21240, defined direction +) was “−” and the “Behavior of gene caused by administration of chemical substance, Gene No. 533” value ([1]; (C), Unigene Rn.106184, defined direction +) was “−”. For the same compound, the “Behavior of gene caused by administration of chemical substance, Gene No. 725” value ([1]; (C), Unigene Rn.108075, defined direction −) was “+”, the “Behavior of gene caused by administration of chemical substance, Gene No. 1163” value ([1]; (C), Unigene Rn.11766, defined direction +) was “−” and the “Behavior of gene caused by administration of chemical substance, Gene No. 4973” value ([1]; (C), Unigene Rn.118529, defined direction −) was “−”. The “Behavior of gene caused by administration of chemical substance, Gene No. 4095” value ([1]; (C), Unigene Rn.119024, defined direction −) was “−”, the “Behavior of gene caused by administration of chemical substance, Gene No. 1334” value [1, 4] was “−” and the “Behavior of gene caused by administration of chemical substance, Gene No. 6620” value [1, 4] was “−”. The “Behavior of gene caused by administration of chemical substance, Gene No. 6303” value ([1]; (C), Unigene Rn.123063, defined direction −) was “−”, the “Behavior of gene caused by administration of chemical substance, Gene No. 5878” value ([1]; (C), Unigene Rn.143213, defined direction −) was “−” and the “Behavior of gene caused by administration of chemical substance, Gene No. 1131” value ([1]; (C), Unigene Rn.144946, defined direction −) was “−”. For the same compound, the “Behavior of gene caused by administration of chemical substance, Gene No. 1562” value ([1]; (C), Unigene Rn.14744, defined direction −) was “−”, the “Behavior of gene caused by administration of chemical substance, Gene No. 1741” value ([1]; (C), Unigene Rn.1647, defined direction −) was “−” and the “Behavior of gene caused by administration of chemical substance, Gene No. 893” value ([1]; (C), Unigene Rn.164817, defined direction +) was “−”. The “Behavior of gene caused by administration of chemical substance, Gene No. 6026” value ([1]; (C), Unigene Rn.167685, defined direction −) was “−”, the “Behavior of gene caused by administration of chemical substance, Gene No. 154” value ([1]; (C), Unigene Rn.185941, defined direction −) was “−” and the “Behavior of gene caused by administration of chemical substance, Gene No. 1993” value ([1]; (C), Unigene Rn.18728, defined direction −) was “−”. For the same compound, the “Behavior of gene caused by administration of chemical substance, Gene No. 813” value ([1]; (C), Unigene Rn.201760, defined direction +) was “−”, the “Behavior of gene caused by administration of chemical substance, Gene No. 2494” value ([1]; (C), Unigene Rn.23969, defined direction +) was “−” and the “Behavior of gene caused by administration of chemical substance, Gene No. 2546” value ([1]; (C), Unigene Rn.24561, defined direction −) was “−”. The “Behavior of gene caused by administration of chemical substance, Gene No. 3776” value ([1]; (C), Unigene Rn.43232, defined direction −) was “−”, the “Behavior of gene caused by administration of chemical substance, Gene No. 3929” value ([1]; (C), Unigene Rn.4620, defined direction +) was “−” and the “Behavior of gene caused by administration of chemical substance, Gene No. 1119” value ([1]; (C), Unigene Rn.9757, defined direction +) was “−”. The “Behavior of gene caused by administration of chemical substance, Gene No. 6742” value ([1]; (C), Unigene Rn.9779, defined direction +) was “−”, the “Behavior of gene caused by administration of chemical substance, Gene No. 5634” value ([1]; (C), Unigene Rn.9862, defined direction −) was “−” and the “Behavior of gene caused by administration of chemical substance, Gene No. 5726” value ([1]; (D), Unigene Rn.9939, defined direction −) was “−”. For the same compound, the Liver carcinogenicity [2] was “Cr+” and the Carcinogenicity [3] was “C+”.
